# Reference: patent US9943599B2, “Therapeutic applications of calcium electroporation to effectively induce tumor necrosis” (Herlev Hospital, priority 2011, dated 2018)
# Legend:
# [1] = tested on: CT26 (murine colon carcinoma) tumors; assay: Calcium with sonoporation, CT26 tumor volume; type: in vivo, Balb/c mice
# Protocol: CT26, a murine colon carcinoma cell line was used for the in vivo experiments. The cells were tested by mycoplasma detection kit (Sigma, St. Louis, Mo.) before use without signs of infection. Cells were maintained in vitro in DMEM culture medium (Sigma, St. Louis, Mo.) with 10% fetal calf serum (Sigma, St. Louis, Mo.), L-glutamine, penicillin and streptomycin at 37° C. and 5% CO2. All antibiotics were removed from culture media 24 hours before tumour inoculation. 1.0×10^6 cells/200 μl serum free DMEM were injected subcutaneously in the right flank of 6-8 week old female Balb/c mice, in condition weighing 16-22 g. Mice were randomised at an average tumor size of approximately 5.0 mm in largest diameter and tumors were treated with 1) injection of isotonic calcium-chloride solution (168 mM CaCl2) and sonoporation (3.5 W/cm^2 at 1 MHz and 100% duty cycle for 2 minutes) using a SONITRON® 2000 ultrasound apparatus (Rich-Mar, Inola, Okla.), 2) sonoporation alone (same parameters as above), 3) isotonic calcium-chloride solution injection, or 4) no treatment. Tumor volume was calculated as ab^2n/6, where a is the largest diameter and b is the largest diameter perpendicular to a. […]
# The difference in tumor volume between the different treatment groups at different time after treatment was assessed using student's t-test.
# basocellular carcinoma = assay: Case study, calcium electroporation in a human patient; type: in vivo
# Protocol: In a patient with multiple basocellular carcinomas, where all known treatment options had been tried and the patient was still in need of treatment, calcium electroporation was tried.
# In this patient, lesions that were verified by biopsy to contain basocellular carcinoma were treated with different doses of calcium chloride or calcium glubionate with electroporation. Three lesions were treated, measuring 0.8 to 2 cm, by 0.1-0.2 mm deep.
# After local anaesthesia (Mir et al), calcium was injected intratumorally using a thin needle and 1 ml syringe. Volumes of resp. 0.1, 0.7 and 3.7 times the calculated tumor volume (in this case calculated as diameter times perpendicular diameter times depth due to the shape of the tumors) was injected.
# Immediately after injection (within 45 seconds), electroporation was performed using a square wave pulse generator (CLINIPORATOR®, IGEA, Modena, Italy) and needle electrodes with parallel arrays 0.4 cm apart. Eight pulses of a duration of 0.1 ms and 1 kV/cm (voltage to electrode distance ratio) were administered immediately after calcium injection.
# [2] = tested on: H69 (human small cell lung cancer) tumors; assay: Tumor volume and fluorescence intensity of H69 tumors on nude mice; settings: for necrosis of skin / healthy tissue around the tumor: injected volume equivalent to the tumor volume (1 to 1 ratio)
# [3] = tested on: H69 (human small cell lung cancer) tumors; assay: Histology, fraction of necrosis in H69 tumors; type: in vivo, NMRI-Foxn1^nu mice
# Protocol: At an average tumor size of 6.1 mm (range 5.8-6.6 mm) in largest diameter, the tumors are treated with 168 mM CaCl2 injection and electroporation as described in Example 3. Tumors are removed at skin level before treatment, 2 hours, 1, 2 and 6 days after treatment, fixated in formalin (10% neutrally buffered) and paraffin embedded. Subsequently, tissue sections with a thickness of 3 μm are HE-stained according to the routine procedure of the department. The fraction of necrosis within the tumor is estimated from HE-sections by stereological point counting using a light microscope, evaluated by a pathologist, blinded with respect to treatment status.
# The difference in fraction of necrosis is assessed using one-way ANOVA with post least-squares-means test with Bonferroni correction for multiple comparisons.
# [4] = tested on: MDA-MB231 (human breast cancer) tumors; assay: Fraction of necrosis after calcium electroporation, MDA-MB231 tumors; type: in vivo, NMRI-Foxn1^nu mice
# Protocol: (§1) LPB, a murine sarcoma cell line, B16, a murine malignant melanoma cell line, MDA-MB231, human a breast cancer cell line, HT29, a human colon cancer cell line, and SW780, a human bladder cancer cell line were used for the in vivo experiment. The cells were tested by rapid MAP27 panel (Taconic, Hudson N.Y.) before use without signs of infection. 2×10^5 cells (B16), 8×10^5 cells (LPB), 2.5×10^6 cells (MDA-MB231), and 5×10^6 cells (HT29 and SW780) in 100 μl PBS were injected subcutaneously in the flank of NMRI-Foxn1^nu mice (Harlan, Indianapolis, Ind.) that were 9-11 weeks old. Mice were randomised at a tumor volume above 85 mm^3 and tumors were treated with injection of isotonic calcium-chloride solution (168 mM CaCI2) and electroporation (8 pulses of 1.0 kv/cm for 100 μs and a frequency of 1 Hz) using a 6 mm plate electrode and a square wave electroporator (CLINIPORATOR®, IGEA, Modena, Italy). Tumor volume was calculated as ab^2n/6, where a is the largest diameter and b is the largest diameter perpendicular to a. The injected volume was half of the tumor volume. […] The fraction of necrosis within the tumor was estimated from HE-sections by stereological point counting using a light microscope, evaluated by a pathologist, blinded with respect to treatment status.
# (§2) The difference in fraction of necrosis at different time after treatment was assessed using student's t-test.
# [5] = tested on: LPB (murine sarcoma) tumors; assay: Fraction of necrosis after calcium electroporation, LPB tumors; type: in vivo, NMRI-Foxn1^nu mice
# Protocol: as §1, §2
# [6] = 168 mM CaCl2 with electroporation
# [7] = 168 mM CaCl2, half tumor volume, electroporation, first days after treatment
smiles,measurement,setting,value
[Ca+2].[Cl-].[Cl-] [calcium chloride],treated tumors eliminated,"[1]; 168 mM CaCl2, half tumor volume, sonoporation 3.5 W/cm^2, 1 MHz, 2 minutes, 7/8",88%
same,tumor volume,[1]; isotonic calcium-chloride injection alone (control),continues to increase
same,normal skin reaction (clinical observation),"basocellular carcinoma; highest volume (3.7 times tumor volume), with electroporation",necrosis of normal skin
same,tumor response (biopsy),"basocellular carcinoma; injected volume 0.1 of tumor volume, with electroporation",did not lead to changes
same,tumor response (biopsy),"basocellular carcinoma; injected volume 0.7 of tumor volume, electroporation 8 pulses 0.1 ms 1 kV/cm",efficient tumor cell kill
same,treated tumors eliminated,"[2]; 168 mM CaCl2 intratumoral with electroporation (8 pulses 1.0 kV/cm, 100 μs, 1 Hz), 8/9",89%
same,"healing of ulceration, average",[2]; [6],18 days
same,"healing of ulceration, range",[2]; [6],9 to 24 days
same,ulceration of treated tumors,[2]; [6],occurs in all
same,fluorescence intensity of tumors,"[2]; 168 mM CaCl2 with electroporation, stays at background levels",decrease drastically
same,necrosis of skin / healthy tissue around the tumor,"[2]; with electroporation, listed as Ca^2+-EP",skin necrosis
same,necrosis of skin / healthy tissue around the tumor,"[2]; with electroporation, listed as calcium solution",necrotic effect on the healthy tissues surrounding the neoplasm
same,necrosis of surrounding tissue,"[2]; injected volume ratio 0.5 of tumor volume, with electroporation",without creating necrosis in the surrounding tissue
same,tumor volume doubling time,[2]; isotonic calcium-chloride without electroporation,6.3 days
same,"fraction of necrosis in tumors, course","[3]; 168 mM CaCl2 with electroporation, 2 hours to 6 days",progressive necrosis
same,fraction of necrosis in tumors,[3]; 6 days post treatment,complete
same,"fraction of necrosis in tumors, course",[4]; [7],progressive necrosis
same,tumor re-growth,[4]; 6 days after the treatment,re-growth
same,"fraction of necrosis in tumors, course",[5]; [7],progressive necrosis
same,tumor re-growth,[5]; 6 days after the treatment,re-growth
